Assay results published in US20170233414A1, “DERIVATIVES OF BODIPY” (OREGON HEALTH & SCIENCE UNIVERSITY, priority 2016, published 2017).

Experiment: Fluorescence properties and quantum yield measurements of the BAA library
Format: physicochemical
Set-up: FWHM (full-width-at half max): unit not given here
Conditions: anhydrous DMSO; for λmax ABS / λmax EM: polystyrene 96 well plate; for FWHM (full-width-at half max): emission; for φfl (quantum yield): relative to reference fluorophore at three concentrations
Experimental: General Instruments. Synthesized sample purification was performed with an Agilent 1260 Infinity HPLC utilizing a C18 column (150mm×21.2 mm). MS (HRMS, ESI) spectra data was collected with an Agilent 6244 TOF LC/MS with diode array detector VL+ and C18 column (4.6 mm×50 mm). Absorbance and fluorescence data were measured on a SpectraMax M5 Microplate reader. NMR spectra, ^1H and ^13C, were recorded on a Bruker ARK400 spectrometer. BAA microscopy screening in cells for organelle specificity and signal-to-background ratio was completed with an Axio Zeiss Light Microscope and 63× oil immersion objective.
Fluorescence Properties and Quantum Yield Measurements. Spectroscopic characterizations were performed in anhydrous DMSO in polystyrene 96 well plate. Analysis included the maximum absorbance wavelength, maximum fluorescence emission wavelength, full-width-at half max, and quantum yield. Quantum yields (φfl) were determined by comparing the area under the emission spectrum of the BAA compound to a reference fluorophore solution at three concentrations using equation 1, where Grad represents the gradient from the plots of integrated fluorescence intensity vs absorbance at three concentrations and q is the refractive index of the solvent. Fluorescein in 0.1 M NaOH (φfl=0.91)^3 was the reference for samples with a max absorbance up to 510 nm, where an excitation of 470 nm was used with the emission integrated between 490 to 800 nm. Rhodamine B in ethanol (φfl=0.70) was the reference for samples with a max absorbance between 511-595 nm, where an excitation of 525 nm was used with the emission integrated between 545 to 800 nm. Cresyl violet in methanol (φfl=0.54)^4 was the reference for samples with a max absorbance above 595 nm, where an excitation of 570 nm was used with the emission integrated between 590 to 800 nm.

| SMILES | Stokes Shift | λmax ABS | λmax EM | FWHM (full-width-at half max) | φfl (quantum yield) |
| --- | --- | --- | --- | --- | --- |
| CC1=CC(C=Cc2ccc(OC(=O)c3ccc(Cl)cc3)cc2)=[N+]2C1=Cc1ccc(CCC(=O)O)n1[B-]2(F)F [BAA-43a] | 10 nm | 569 nm | 579 nm | 31 | 0.45 |
| COc1cc(C=CC2=[N+]3C(=Cc4ccc(C(=Cc5ccc(OCc6cccc(C(F)(F)F)c6)c(OC)c5)CC(=O)O)n4[B-]3(F)F)C(C)=C2)ccc1OCc1cccc(C(F)(F)F)c1 [BAA-44b] | 18 nm | 582 nm | 600 nm | 43 | 0.28 |
| CCOc1ccc(C=CC2=[N+]3C(=Cc4ccc(CCC(=O)O)n4[B-]3(F)F)C(C)=C2)c(OCC)c1 [BAA-47a] | 22 nm | 589 nm | 611 nm | 47 | 0.33 |
| CC1=CC(C=Cc2c[nH]c3ccc(OCc4ccccc4)cc23)=[N+]2C1=Cc1ccc(CCC(=O)O)n1[B-]2(F)F [BAA-48a] | 38 nm | 603 nm | 641 nm | 60 | 0.45 |
| CC1=CC(C=Cc2cc(-n3ccnc3)ccc2C)=[N+]2C1=Cc1ccc(CCC(=O)O)n1[B-]2(F)F [BAA-50a] | 10 nm | 571 nm | 581 nm | 33 | 0.28 |
| CC1=CC(C=Cc2cc(-n3ccnc3)ccc2C)=[N+]2C1=Cc1ccc(C(=Cc3cc(-n4ccnc4)ccc3C)CC(=O)O)n1[B-]2(F)F [BAA-50b] | 9 nm | 572 nm | 581 nm | 34 | 0.12 |
| CCOc1ccc2[nH]c(=O)cc(C=CC3=[N+]4C(=Cc5ccc(CCC(=O)O)n5[B-]4(F)F)C(C)=C3)c2c1 [BAA-51a] | 13 nm | 594 nm | 607 nm | 42 | 0.06 |
| C#CCOc1c(Cl)cc(C=CC2=[N+]3C(=Cc4ccc(CCC(=O)O)n4[B-]3(F)F)C(C)=C2)cc1OC [BAA-52a] | 8 nm | 577 nm | 585 nm | 51 | 0.04 |
| COc1cc(C=CC2=[N+]3C(=Cc4ccc(CCC(=O)O)n4[B-]3(F)F)C(C)=C2)cc(OC)c1 [BAA-53a] | 11 nm | 570 nm | 581 nm | 30 | 0.44 |
| CC1=CC(/C=C/c2ccc(Cl)c(F)c2)=[N+]2C1=Cc1ccc(CCC(=O)O)n1[B-]2(F)F [BAA-54a] | 8 nm | 573 nm | 581 nm | 46 | 0.04 |
| CC1=CC(C=Cc2cnn(-c3ccccc3)c2C)=[N+]2C1=Cc1ccc(CCC(=O)O)n1[B-]2(F)F [BAA-55a] | 16 nm | 576 nm | 592 nm | 35 | 0.75 |
| CC1=CC(C=Cc2cnn(-c3ccccc3)c2C)=[N+]2C1=Cc1ccc(C(=Cc3cnn(-c4ccccc4)c3C)CC(=O)O)n1[B-]2(F)F [BAA-55b] | 16 nm | 575 nm | 591 nm | 38 | 0.75 |
| CC1=CC(C=Cc2ccc(-c3cccs3)nc2)=[N+]2C1=Cc1ccc(CCC(=O)O)n1[B-]2(F)F [BAA-56a] | 10 nm | 585 nm | 595 nm | 32 | 0.91 |
| CC1=CC(C=Cc2ccc(-c3cccs3)nc2)=[N+]2C1=Cc1ccc(C(=Cc3ccc(-c4cccs4)nc3)CC(=O)O)n1[B-]2(F)F [BAA-56b] | 11 nm | 586 nm | 597 nm | 35 | 0.15 |
| CC1=CC(C=Cc2cnn(-c3ccccc3C)c2C)=[N+]2C1=Cc1ccc(CCC(=O)O)n1[B-]2(F)F [BAA-57a] | 16 nm | 574 nm | 590 nm | 45 | 0.75 |
| CC1=CC(C=Cc2cnn(-c3ccccc3C)c2C)=[N+]2C1=Cc1ccc(C(=Cc3cnn(-c4ccccc4C)c3C)CC(=O)O)n1[B-]2(F)F [BAA-57b] | 16 nm | 575 nm | 591 nm | 38 | 0.75 |

| SMILES | Stokes Shift | λmax ABS | λmax EM | FWHM (full-width-at half max) | φfl (quantum yield) |
| --- | --- | --- | --- | --- | --- |
| COC(=O)c1ccc(-c2cccc(C=CC3=[N+]4C(=Cc5ccc(CCC(=O)O)n5[B-]4(F)F)C(C)=C3)c2)cc1 [BAA-58a] | 10 nm | 572 nm | 582 nm | 30 | 0.70 |
| CC1=CC(C=Cc2cccc(-c3ccc(S(C)(=O)=O)cc3)n2)=[N+]2C1=Cc1ccc(CCC(=O)O)n1[B-]2(F)F [BAA-59a] | 10 nm | 571 nm | 581 nm | 30 | 0.53 |
| CC1=CC(C=Cc2ccc(-c3cccs3)s2)=[N+]2C1=Cc1ccc(C(=Cc3ccc(-c4cccs4)s3)CC(=O)O)n1[B-]2(F)F [BAA-60b] | 16 nm | 588 nm | 604 nm | 37 | 0.47 |
| CC1=CC(C=Cc2cccc3cnccc23)=[N+]2C1=Cc1ccc(CCC(=O)O)n1[B-]2(F)F [BAA-62a] | 15 nm | 579 nm | 594 nm | 33 | 0.68 |
| CC1=CC(C=Cc2cc3ccc(C)cc3nc2Cl)=[N+]2C1=Cc1ccc(CCC(=O)O)n1[B-]2(F)F [BAA-63a] | 15 nm | 592 nm | 607 nm | 39 | 0.43 |
| CC1=CC(C=Cc2c[nH]nc2-c2ccc(Cl)cc2)=[N+]2C1=Cc1ccc(CCC(=O)O)n1[B-]2(F)F [BAA-64a] | 17 nm | 576 nm | 593 nm | 37 | 0.80 |
| CC1=CC(C=Cc2ccc(-c3ccccc3F)o2)=[N+]2C1=Cc1ccc(CCC(=O)O)n1[B-]2(F)F [BAA-65a] | 16 nm | 606 nm | 622 nm | 54 | 0.21 |
| CC1=CC(C=Cc2ccc(-c3ccc(Cl)s3)nc2)=[N+]2C1=Cc1ccc(CCC(=O)O)n1[B-]2(F)F [BAA-66a] | 11 nm | 587 nm | 598 nm | 34 | 0.28 |
| CCSc1ccc(-c2ccc(C=CC3=[N+]4C(=Cc5ccc(CCC(=O)O)n5[B-]4(F)F)C(C)=C3)cn2)cc1 [BAA-67a] | 11 nm | 587 nm | 598 nm | 61 | 0.15 |
| CC1=CC(C=Cc2ccc(-c3nccs3)cc2)=[N+]2C1=Cc1ccc(CCC(=O)O)n1[B-]2(F)F [BAA-68a] | 10 nm | 585 nm | 595 nm | 30 | 0.17 |
| CC1=CC(C=Cc2ccc(-c3cc(Cl)cc(Cl)c3)nc2)=[N+]2C1=Cc1ccc(CCC(=O)O)n1[B-]2(F)F [BAA-69a] | 12 nm | 577 nm | 589 nm | 30 | 0.85 |
| CC1=CC(C=Cc2ccc(-c3cccc(C(F)(F)F)c3)nc2)=[N+]2C1=Cc1ccc(CCC(=O)O)n1[B-]2(F)F [BAA-70a] | 8 nm | 580 nm | 588 nm | 33 | 0.17 |
| CC1=CC(C=Cc2ccc(-c3ccc(OC(F)(F)F)cc3)nc2)=[N+]2C1=Cc1ccc(CCC(=O)O)n1[B-]2(F)F [BAA-71a] | 9 nm | 580 nm | 589 nm | 32 | 0.19 |
| CC1=CC(C=Cc2ccc(-c3ccc(F)c(F)c3)nc2)=[N+]2C1=Cc1ccc(CCC(=O)O)n1[B-]2(F)F [BAA-72a] | 10 nm | 580 nm | 590 nm | 31 | 0.40 |
| CC1=CC(C=Cc2ccc(OCCBr)cc2)=[N+]2C1=Cc1ccc(CCC(=O)O)n1[B-]2(F)F [BAA-73a] | 14 nm | 579 nm | 593 nm | 46 | 0.55 |
